Measurements published in ChEMBL document CHEMBL1201862, “PubChem BioAssay data set” (2004).
Active and inactive are the calls of the source.

Assays:
Insulin-degrading enzyme [1] = target: T1, Insulin-degrading enzyme (Homo sapiens, UniProt P14735); test: recombinant IDE activation, cell-free – biochemical, fluorescence polarization, counter-screen for IDE activator project, dose response (AID 588681)
T1 sequence (P14735 whole entry): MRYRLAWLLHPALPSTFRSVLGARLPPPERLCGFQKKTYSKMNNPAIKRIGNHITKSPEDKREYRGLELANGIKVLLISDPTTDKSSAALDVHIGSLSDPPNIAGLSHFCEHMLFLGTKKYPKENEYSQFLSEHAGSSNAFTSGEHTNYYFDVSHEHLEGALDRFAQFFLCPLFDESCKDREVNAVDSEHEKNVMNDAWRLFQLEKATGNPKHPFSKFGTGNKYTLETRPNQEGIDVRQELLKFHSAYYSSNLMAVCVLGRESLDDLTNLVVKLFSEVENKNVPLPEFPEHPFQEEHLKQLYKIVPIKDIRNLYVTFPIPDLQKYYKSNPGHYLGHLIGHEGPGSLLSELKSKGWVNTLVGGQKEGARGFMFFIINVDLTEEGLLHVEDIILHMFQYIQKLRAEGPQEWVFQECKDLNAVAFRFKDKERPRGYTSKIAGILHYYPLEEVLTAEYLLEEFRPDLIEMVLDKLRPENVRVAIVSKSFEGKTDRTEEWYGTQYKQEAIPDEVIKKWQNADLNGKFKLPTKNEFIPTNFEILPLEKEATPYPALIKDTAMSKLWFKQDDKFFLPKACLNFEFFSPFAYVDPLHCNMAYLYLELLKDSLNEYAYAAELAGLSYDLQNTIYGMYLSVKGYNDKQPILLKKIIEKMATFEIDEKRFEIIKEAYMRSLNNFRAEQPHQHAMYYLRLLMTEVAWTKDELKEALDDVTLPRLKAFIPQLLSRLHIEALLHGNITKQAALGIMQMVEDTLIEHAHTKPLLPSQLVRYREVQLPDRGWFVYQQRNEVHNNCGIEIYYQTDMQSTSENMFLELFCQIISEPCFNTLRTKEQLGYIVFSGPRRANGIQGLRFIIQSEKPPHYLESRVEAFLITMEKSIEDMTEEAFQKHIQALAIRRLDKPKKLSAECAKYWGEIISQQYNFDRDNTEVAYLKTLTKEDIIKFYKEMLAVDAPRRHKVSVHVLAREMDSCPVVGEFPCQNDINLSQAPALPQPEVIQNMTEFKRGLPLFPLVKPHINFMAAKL

HEK293 [2] = test: membrane integrity loss in HEK cells – cell-based, fluorescence, cytotoxicity control for IDE activator project, dose response (AID 588440); format: functional; details: Homo sapiens;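 note: cytotoxicity by LDH release measuring loss of membrane integrity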
HEK293 [3] = test: optical interference in Abeta FP readout, dose response, artefact control for IDE activator project, biochemical, fluorescence polarization (AID 588442); format: functional, cell-based; details: Homo sapiens
[4] = alpha-synuclein stem-loop luciferase translation blockers – H4 neuroglioma cells, luminescence, confirmation (AID 1988); format: functional, cell-based
Insulin-degrading enzyme [5] = target: T1, Insulin-degrading enzyme; test: cellular IDE activation of Abeta substrate cleavage – fluorescence polarization, HEK cells, dose response (AID 588439); format: functional, cell-based
[6] = luciferase reporter signal suppression in cells – H4 neuroglioma cells, luminescence, dose response (AID 1990); format: functional, cell-based
[7] = target: T2, Short transient receptor potential channel 4 (Mus musculus, UniProt Q9QUQ5); test: block of DAMGO-driven TRPC4 calcium entry – cell-based, HEK293 TRPC4/mu-opioid, Fluo-4 calcium, dose response (AID 434942); format: functional;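 note: potency of inhibitors blocking the TRPC4 calcium response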
T2 sequence (Q9QUQ5 whole entry): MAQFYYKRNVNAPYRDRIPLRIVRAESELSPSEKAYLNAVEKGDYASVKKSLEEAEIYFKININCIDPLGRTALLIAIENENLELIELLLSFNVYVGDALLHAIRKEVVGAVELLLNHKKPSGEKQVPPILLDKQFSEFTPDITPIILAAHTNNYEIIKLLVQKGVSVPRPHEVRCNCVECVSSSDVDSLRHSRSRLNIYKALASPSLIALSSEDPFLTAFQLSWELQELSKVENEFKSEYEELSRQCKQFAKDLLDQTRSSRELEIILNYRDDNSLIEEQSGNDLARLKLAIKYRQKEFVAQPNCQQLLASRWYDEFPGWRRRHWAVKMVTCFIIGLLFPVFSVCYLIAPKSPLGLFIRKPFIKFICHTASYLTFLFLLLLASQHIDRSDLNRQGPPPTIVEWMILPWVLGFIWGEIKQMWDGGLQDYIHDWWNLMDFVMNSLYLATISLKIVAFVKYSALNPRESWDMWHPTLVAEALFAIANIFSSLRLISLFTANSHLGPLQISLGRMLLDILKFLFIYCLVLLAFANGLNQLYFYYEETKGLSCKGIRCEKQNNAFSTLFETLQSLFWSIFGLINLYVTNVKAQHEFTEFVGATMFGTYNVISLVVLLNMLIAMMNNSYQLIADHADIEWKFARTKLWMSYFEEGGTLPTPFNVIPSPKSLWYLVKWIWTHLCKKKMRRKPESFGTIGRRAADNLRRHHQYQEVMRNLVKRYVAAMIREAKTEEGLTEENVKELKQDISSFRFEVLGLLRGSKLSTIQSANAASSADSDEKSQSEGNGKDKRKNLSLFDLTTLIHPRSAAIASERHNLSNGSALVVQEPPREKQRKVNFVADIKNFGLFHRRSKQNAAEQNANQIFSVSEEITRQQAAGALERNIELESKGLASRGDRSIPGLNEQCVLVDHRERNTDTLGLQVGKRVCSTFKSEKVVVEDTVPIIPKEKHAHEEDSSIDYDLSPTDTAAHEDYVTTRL

[8] = Luminescence Cell-Based Dose Response HTS to Identify Inhibitors of 5'UTR Stem-Loop Driven Prion Protein mRNA Translation in H4 Neuroglioblastoma Cells. [Related pubchem assays: 1827 (Project Summary), 1813 (Primary HTS)]; format: functional
[9] = target: T3, Sentrin-specific protease 1 (Homo sapiens, UniProt Q9P0U3); test: SENP1 catalytic domain blockers, concentration series – biochemical, kinetic FRET, dose response (AID 651697); format: functional; details: read-out: IC50_Mean
T3 sequence (Q9P0U3 whole entry): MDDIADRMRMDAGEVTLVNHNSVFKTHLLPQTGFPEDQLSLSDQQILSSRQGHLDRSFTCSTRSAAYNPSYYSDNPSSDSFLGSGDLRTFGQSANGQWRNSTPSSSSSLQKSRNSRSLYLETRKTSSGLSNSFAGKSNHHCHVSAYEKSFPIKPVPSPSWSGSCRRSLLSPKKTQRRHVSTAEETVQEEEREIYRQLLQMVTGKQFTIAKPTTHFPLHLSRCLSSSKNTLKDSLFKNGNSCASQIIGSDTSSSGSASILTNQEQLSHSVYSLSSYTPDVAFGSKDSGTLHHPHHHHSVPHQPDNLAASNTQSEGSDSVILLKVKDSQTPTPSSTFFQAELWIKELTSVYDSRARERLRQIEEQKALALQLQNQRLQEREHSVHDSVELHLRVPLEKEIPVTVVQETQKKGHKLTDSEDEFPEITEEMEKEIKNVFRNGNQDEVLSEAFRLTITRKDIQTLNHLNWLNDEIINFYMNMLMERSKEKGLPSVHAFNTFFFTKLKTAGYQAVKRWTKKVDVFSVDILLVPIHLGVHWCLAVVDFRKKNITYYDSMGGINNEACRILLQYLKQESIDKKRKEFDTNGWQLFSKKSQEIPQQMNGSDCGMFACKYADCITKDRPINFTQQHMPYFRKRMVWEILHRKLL

[10] = target: T3, Sentrin-specific protease 1; test: Dose response confirmation of small molecule inhibitors of the catalytic domain of the SUMO protease, SENP1 in a FRET assay.; format: functional; details: read-out: IC50_Mean
[11] = Trypanosoma cruzi growth suppression in host cells – NIH3T3 host cells, beta-gal luminescence, confirmation (AID 2044); format: functional, cell-based;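 note: intracellular parasites grown in NIH/3T3 mouse fibroblasts as host cells; luminescent beta-galactosidase reporter signal from transgenic T. cruzi replicating inside host cells; inhibitors lower the luminescence signal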
[12] = target: T4, DNA repair and recombination protein RAD54-like (Homo sapiens, UniProt Q92698); test: RAD54 Holliday junction migration blockers – biochemical, fluorescence, cherry-picked samples, dose series, confirmation (AID 651657); format: functional
T4 sequence (Q92698 whole entry): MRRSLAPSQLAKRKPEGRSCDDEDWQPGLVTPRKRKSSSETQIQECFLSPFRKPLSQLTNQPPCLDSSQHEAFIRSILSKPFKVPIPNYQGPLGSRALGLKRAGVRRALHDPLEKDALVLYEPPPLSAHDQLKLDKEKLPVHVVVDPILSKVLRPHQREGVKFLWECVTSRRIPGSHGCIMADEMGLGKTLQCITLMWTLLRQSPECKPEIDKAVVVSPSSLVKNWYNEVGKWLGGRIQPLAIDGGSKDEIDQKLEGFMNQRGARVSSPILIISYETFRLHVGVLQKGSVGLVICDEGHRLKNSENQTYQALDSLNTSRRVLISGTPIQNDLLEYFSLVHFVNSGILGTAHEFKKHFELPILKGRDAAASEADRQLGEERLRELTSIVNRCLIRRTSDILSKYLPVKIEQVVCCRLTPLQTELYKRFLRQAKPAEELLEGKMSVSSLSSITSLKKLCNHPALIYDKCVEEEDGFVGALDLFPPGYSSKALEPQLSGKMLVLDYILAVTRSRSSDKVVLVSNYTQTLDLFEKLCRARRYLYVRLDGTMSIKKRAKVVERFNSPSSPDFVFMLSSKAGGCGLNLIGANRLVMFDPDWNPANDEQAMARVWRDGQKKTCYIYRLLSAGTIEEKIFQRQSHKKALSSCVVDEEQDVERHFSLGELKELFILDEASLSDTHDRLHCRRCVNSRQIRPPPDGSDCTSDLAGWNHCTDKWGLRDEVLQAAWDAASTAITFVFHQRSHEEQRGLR

[13] = NIH3T3 cell viability loss – ATP luminescence, mouse fibroblasts, counter-screen, dose response (AID 2010); format: functional, cell-based;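 note: cells exposed to compound for about 90 hours before reading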
[14] = cytotoxicity toward MDA-MB-231 breast cancer cells – cell-based, CellTiter-Glo luminescence, cherry-pick, cytotoxicity control for RAD54 inhibitor project, dose response (AID 651692); format: functional
[15] = THP-1 cell cytotoxicity, dose response, cytotoxicity control for non-replicating M. tuberculosis project (AID 489025); format: functional
Interleukin-8 = target: T5, Interleukin-8 (Homo sapiens, UniProt P10145); test: Dose Response confirmation of uHTS small molecule hits for cystic fibrosis induced NFkb Inhibitors in a PAF-induced IL8 counterscreen.; format: functional; details: read-out: IC50_Mean
T5 sequence (P10145 whole entry): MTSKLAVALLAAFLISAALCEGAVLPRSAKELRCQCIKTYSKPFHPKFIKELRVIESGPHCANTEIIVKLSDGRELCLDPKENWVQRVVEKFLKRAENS

COc1ccc(/C=C2/SC(=S)N(CCCC(=O)Nc3ccccc3C(=O)O)C2=O)cc1
EC50 (Insulin-degrading enzyme [1]): > 54.6 µM (inactive)
IC50 (HEK293 [2]): > 89.1 µM (inactive)
EC50 (HEK293 [3]): 58.7 µM (inactive)
EC50 [4]: 11.1 µM (active)
EC50 (Insulin-degrading enzyme [5]): > 54.6 µM (inactive)
EC50 [6]: 11 µM (active)
EC50 [7]: 6.68 µM (active)
EC50 [8]: 11.2 µM (active)

C=CCOCCN1C(=O)C2C(c3ccccc3)C=CC(c3ccccc3)C2C1=O (stereo not drawn)
IC50 [9]: 6.05 µM (active)
IC50 [10]: 4.3 µM (active)

CCN(CC)CCSc1nnc2c3cc(C)ccc3n(Cc3ccccc3)c2n1
EC50 [11]: 0.754 µM (active)
AC50 [12]: 31.4 µM (active)
EC50 [13]: > 60 µM (not active)
AC50 [14]: 30.6 µM (active)
CC50 [15]: 26.1 µM (active)

COCCNc1nc(Oc2cncc(Cl)c2)c2sccc2n1
IC50 (Interleukin-8): 29.2 µM (inactive)

CCOC(=O)c1c(O)nc2ccc(Cl)c3c2c1-c1ccccc1C3=O
IC50 [9]: 18.3 µM (active)
IC50 [10]: 2.75 µM (active)
